Experimental data reported in patent publication US11129845B2, “Compositions and methods for the delivery of nucleic acids” (CASE WESTERN RESERVE UNIVERSITY, priority 2014, dated 2021).

Experiments:
[1] = Nanoparticle diameter and polydispersity by dynamic light scattering (Malvern Zetasizer); type: physicochemical; settings: for Nanoparticle diameter as measured by dynamic light scattering: siRNA-lipid complexes
Method: (§1) The cationic lipid carriers are dissolved in ethanol at a stock concentration of 2.5 mM, while all siRNA is reconstituted in nuclease-free water at a 0.25 μg/μL (18.8 μM) concentration. Nanoparticles are formulated by mixing the carriers with siRNA for a period of 30 min in RNase-free phosphate buffer saline (PBS) at pre-specified N/P ratios (N=number of protonable amines in lipid, P=number of phosphate groups in the siRNA). In preparing the lipoplexes, proper dilutions were made such that the volume ratio of ethanol:water was kept constant at 1:20. Minimizing the amount of ethanol is important because it is effective in dissolving lipids, thus inhibiting particle formation. The diameters (as determined by dynamic light scattering) and zeta potentials of all nanoparticles were analyzed using a Malvern Zetasizer instrument at pH=7.4. siRNA encapsulation efficiency was calculated using a RiboGreen fluorescence-based assay from Invitrogen, designed specifically for detection of free RNA at […] wavelengths of 480 and 520 nm, respectively. Nanoparticles were created with all carriers in the library so that final siRNA concentrations were 1.6 μg/mL. A linear standard curve was utilized to calculate the encapsulation efficiencies from signal intensities measured by a SpectraMax microplate reader (Molecular Devices).

[2] = Zeta-potential of siRNA-lipid complexes (Malvern Zetasizer); type: physicochemical
Method: as §1

[3] = test system: luciferase reporter; test: Luciferase reporter silencing in HT29-Luc cells; type: cell-based, human; settings: HT29, N/P 18, 72 h post-transfection
Method: Gene silencing efficiency was investigated in the HT29-Luc cell line by analyzing the expression of a luciferase reporter after anti-Luc siRNA therapy. To perform this study, cancer cells were seeded in 12 well plates at a density of 20,000 cells per well. Transfections were conducted in fresh serum-free media with 100 nM of siRNA when the cells were 25% confluent. The cells continued to grow in normal growth media for an additional 48 and 72 h, at which point they were rinsed twice with PBS and lysed for protein collection. The lysis buffer was a component of a Promega Luciferase Assay kit designed for measuring luciferase expression in the cell lysate. Equally important, the lysis buffer was compatible with the BCA protein assay so that we were able to normalize the luciferase expression in our samples with total protein content. For this silencing study, all synthesized carriers were evaluated at N/P ratios of 8, 10, 12, 14, 16, 18, and 20 to determine the best transfection formulation. Relative luciferase expression was determined for each trial using a SpectraMax luminometer upon the addition of a light-inducing luciferin substrate to the collected protein.
The RNAi capabilities of each carrier were investigated by analyzing the silencing of a luciferase (Luc) reporter in HT29 cancer cells after anti-Luc siRNA therapy. To perform this study, we seeded HT29-Luc cells in 12 well plates at a density of 20,000 cells per well. When 25% confluency, the cells were incubated with fresh serum-free transfection media containing nanoparticles at a dose of 100 nM siRNA. After 4 hours, the media was replaced with fresh complete growth media, so that the cells could continue to grow for an additional 48-72 hours, at which point they were lysed for protein collection. The lysis buffer was compatible with the BCA protein assay so that we could normalize luciferase expression in our samples. Negative controls included cells that were treated with 1) particles encapsulating non-specific siRNA, 2) naked anti-Luc siRNA, or 3) plain serum-free media. Luciferase expression was determined using a Spectra Max luminometer upon the addition of a light-inducing substrate to the collected protein. A similar knockdown experiment was also conducted in non-cancerous CHO cells expressing a GFP reporter. Flow cytometry was utilized to assess the silencing efficiency of the ECO and ECL delivery systems in this cell line. Cytotoxicity of the carriers 48 hours post-transfection was also investigated in both cell lines using an MTT colorimetric assay. […] These RNAi silencing levels surpassed those obtained with a Lipofectamine RNAiMax commercial transfection agent.

[4] = test system: HT29 colon carcinoma cells; test: Cellular uptake of Alexa Fluor 488-siRNA via flow cytometry; type: cell-based, human; settings: HT29, N/P=18, 4 h, 100 nM Alexa Fluor 488-siRNA
Method: Flow cytometry was used to investigate the cellular uptake of our delivery system in HT29 colon carcinoma cells. All carriers in the library were formulated into nanoparticles by condensing Alexa Fluor 488-labeled siRNA at the optimal N/P ratio determined by the above luciferase knockdown studies. Approximately 50,000 cancer cells were seeded in 6-well plates and allowed to grow until 30-50% confluence was reached. The cancer cells were transfected with a 100 nM siRNA dose in serum-free media. After 4 h, the transfection media were aspirated and the cells were washed twice with PBS. The cells were then trypsinized, collected, and fixed with 2% paraformaldehyde in PBS, prior to flow cytometric analysis.

[5] = test system: Red blood cells (RBCs); test: pH-sensitive hemolytic activity of carrier library; type: cell-based, rat; settings: all N/P ratios (5, 10, 15) and pHs (7.4, 6.5, 5.4) tested
Method: Hemolytic activity of each carrier was determined to verify the pH-sensitive membrane disruption capabilities of each carrier in the delivery system. Red blood cells (RBCs) extracted from rats were purchased from Innovative Research Inc. (Novi, Mich.) and diluted 1:50 in PBS solutions of pHs=5.4, 6.5, or 7.4. A total of 100 μL of nanoparticles were created at N/P ratios of 5, 10, 15 and then incubated with 100 μL of diluted RBCs at 37° C. for 2 h. Nanoparticles were formulated so that the final amine concentration for all the samples, after mixing with the RBCs, was 150 μM. Multiple pHs were tested to predict if the nanoparticles could disrupt membranes of the endosomal-lysosomal compartments (pH=5-6), without affecting the integrity of the outer cell membrane prior to endocytosis (pH=7.4). The absorbance of each test sample was measured on a SpectraMax spectrophotometer at a wavelength of 540 nm in order to determine the amount of hemoglobin released from the RBCs, due to membrane destabilization, relative to that achieved by a positive control treatment of 1% (v/v) Triton-X100 surfactant during the 2 hour incubation period.

[6] = test system: CHO-GFP cells; type: cell-based, Chinese hamster
Method: Cytotoxicity of the carriers was investigated using an MTT colorimetric assay measuring cellular metabolic activity (Invitrogen). The transfection procedure was identical to that presented for the reporter knockdown studies above, except for the fact that 96 well plates were utilized instead, and seeded with 10,000 cells per well. After transfection, the cells were allowed to grow for an additional 48 h. At that point, they were incubated with MTT for 4 h, followed by an additional 4 hour incubation with an SDS-HCl solution to dissolve any insoluble formazan crystals formed by the reduction of MTT by NAD(P)H-dependent enzymes in the cells. The absorbance of each sample was measured at 570 nm using a SpectraMax microplate reader. Cellular viability was calculated by averaging the signal intensities over three replicates and then normalizing the results relative to the negative control data.
The RNAi capabilities of each carrier were investigated by analyzing the silencing of a luciferase (Luc) reporter in HT29 cancer cells after anti-Luc siRNA therapy. To perform this study, we seeded HT29-Luc cells in 12 well plates at a density of 20,000 cells per well. […] Luciferase expression was determined using a Spectra Max luminometer upon the addition of a light-inducing substrate to the collected protein. […]

Compound	Polydispersity of siRNA-lipid complexes ([1]; N/P = 2)	Polydispersity of siRNA-lipid complexes ([1]; N/P = 5)	Polydispersity of siRNA-lipid complexes ([1]; N/P = 8)	Polydispersity of siRNA-lipid complexes ([1]; N/P = 10)	Polydispersity of siRNA-lipid complexes ([1]; N/P = 15)	Nanoparticle diameter as measured by dynamic light scattering ([1]; N/P = 2)	Nanoparticle diameter as measured by dynamic light scattering ([1]; N/P = 5)	Nanoparticle diameter as measured by dynamic light scattering ([1]; N/P = 8)	Nanoparticle diameter as measured by dynamic light scattering ([1]; N/P = 10)	Nanoparticle diameter as measured by dynamic light scattering ([1]; N/P = 15)	Zeta-potential of siRNA-lipid complexes ([2]; pH = 7.4, N/P = 2)	Zeta-potential of siRNA-lipid complexes ([2]; pH = 7.4, N/P = 5)	Zeta-potential of siRNA-lipid complexes ([2]; pH = 7.4, N/P = 8)	Zeta-potential of siRNA-lipid complexes ([2]; pH = 7.4, N/P = 10)	Zeta-potential of siRNA-lipid complexes ([2]; pH = 7.4, N/P = 15)	luciferase knockdown (transfection efficiency) [3]	cellular uptake, mean fluorescence intensity (MFI) [4]	hemolytic activity relative to Triton X-100 [5]	relative cell viability (MTT) [6]
CCCCC/C=C\C/C=C\CCCCCCCC(=O)NC(CS)C(=O)NC(Cc1cnc[nH]1)C(=O)NCCNC(=O)CCN(CCN)CCC(=O)NCCNC(=O)C(Cc1cnc[nH]1)NC(=O)C(CS)NC(=O)CCCCCCC/C=C\C/C=C\CCCCC (stereo not drawn) [EHCLn]	0.299	0.197	0.167	0.112	0.127	403 ± 35 nm	379 ± 28 nm	227 ± 20 nm	130 ± 14 nm	60 ± 11 nm	−23.73 ± 2.26 mV	−17.04 ± 1.32 mV	0.49 ± 1.17 mV	11.34 ± 1.67 mV	24.92 ± 2.89 mV				
CCCCCCCC/C=C\CCCCCCCC(=O)NC(CS)C(=O)NC(Cc1cnc[nH]1)C(=O)NCCNC(=O)CCN(CCN)CCC(=O)NCCNC(=O)C(Cc1cnc[nH]1)NC(=O)C(CS)NC(=O)CCCCCCC/C=C\CCCCCCCC (stereo not drawn) [EHCO]	0.276	0.195	0.165	0.122	0.161	480 ± 30 nm	427 ± 25 nm	380 ± 18 nm	141 ± 15 nm	51 ± 10 nm	−23.14 ± 2.47 mV	−14.09 ± 1.88 mV	5.54 ± 1.37 mV	18.80 ± 1.02 mV	22.68 ± 2.08 mV	46.4±5.8%	1957±208		
CCCCCCCC/C=C\CCCCCCCC(=O)NC(CS)C(=O)NCCNC(=O)CCN(CCCNCCCCNCCCN)CCC(=O)NCCNC(=O)C(CS)NC(=O)CCCCCCC/C=C\CCCCCCCC (stereo not drawn) [SCO]	0.339	0.236	0.19	0.158	0.176	407 ± 35 nm	138 ± 28 nm	63 ± 12 nm	65 ± 11 nm	53 ± 9 nm	−29.49 ± 1.33 mV	26.60 ± 2.76 mV	23.16 ± 1.88 mV	23.29 ± 3.11 mV	25.16 ± 3.75 mV			greatest hemolytic activity	

More lines, main results first:

Polydispersity of siRNA-lipid complexes ([1]; N/P = 2)	Polydispersity of siRNA-lipid complexes ([1]; N/P = 5)	Polydispersity of siRNA-lipid complexes ([1]; N/P = 8)	Polydispersity of siRNA-lipid complexes ([1]; N/P = 10)	Polydispersity of siRNA-lipid complexes ([1]; N/P = 15)	Nanoparticle diameter as measured by dynamic light scattering ([1]; N/P = 2)	Nanoparticle diameter as measured by dynamic light scattering ([1]; N/P = 5)	Nanoparticle diameter as measured by dynamic light scattering ([1]; N/P = 8)	Nanoparticle diameter as measured by dynamic light scattering ([1]; N/P = 10)	Nanoparticle diameter as measured by dynamic light scattering ([1]; N/P = 15)	Zeta-potential of siRNA-lipid complexes ([2]; pH = 7.4, N/P = 2)	Zeta-potential of siRNA-lipid complexes ([2]; pH = 7.4, N/P = 5)	Zeta-potential of siRNA-lipid complexes ([2]; pH = 7.4, N/P = 8)	Zeta-potential of siRNA-lipid complexes ([2]; pH = 7.4, N/P = 10)	Zeta-potential of siRNA-lipid complexes ([2]; pH = 7.4, N/P = 15)	Compound	luciferase knockdown (transfection efficiency) [3]	cellular uptake, mean fluorescence intensity (MFI) [4]	hemolytic activity relative to Triton X-100 [5]	relative cell viability (MTT) [6]
0.246	0.183	0.174	0.114	0.163	559 ± 38 nm	223 ± 23 nm	119 ± 13 nm	132 ± 15 nm	75 ± 10 nm	−32.09 ± 1.65 mV	24.02 ± 1.07 mV	26.35 ± 1.40 mV	25.59 ± 2.22 mV	23.80 ± 2.95 mV	CCCCC/C=C\C/C=C\CCCCCCCC(=O)NC(CS)C(=O)NC(Cc1cnc[nH]1)C(=O)NCCNC(=O)CCN(CCCNCCCCNCCCN)CCC(=O)NCCNC(=O)C(Cc1cnc[nH]1)NC(=O)C(CS)NC(=O)CCCCCCC/C=C\C/C=C\CCCCC (stereo not drawn) [SHCLn]		4414±413		83.3±4.22%
0.238	0.192	0.189	0.154	0.124	441 ± 32 nm	238 ± 27 nm	139 ± 17 nm	151 ± 16 nm	46 ± 8 nm	−32.09 ± 1.65 mV	−18.5 ± 2.43 mV	18.32 ± 1.45 mV	21.76 ± 2.31 mV	23.94 ± 1.70 mV	CCCCCCCC/C=C\CCCCCCCC(=O)NC(CS)C(=O)NC(Cc1cnc[nH]1)C(=O)NCCNC(=O)CCN(CCCNCCCCNCCCN)CCC(=O)NCCNC(=O)C(Cc1cnc[nH]1)NC(=O)C(CS)NC(=O)CCCCCCC/C=C\CCCCCCCC (stereo not drawn) [SHCO]		3580±244		
